Reference: the supplement of paper PMC8671470

Tests used:
Experiment in all cases: cell viability (% survival relative to DMSO control); higher = less cytotoxic
Settings in all cases: 72 h
MV4-11 = tested on: MV4-11
Protocol: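 8x8 drug-combination matrices (0–5000 nM; rosiglitazone and lestaurtinib 0–1000 nM) were run in MV4-11 cells for 72 h with CellTiter-Glo read-out. Survival is normalised to DMSO and 10 µM bortezomib and clipped at 100%.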

BV-173 = tested on: BV-173
Protocol: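 8x8 drug-combination matrices (0–5000 nM; rosiglitazone and lestaurtinib 0–1000 nM) were run in BV-173 cells for 72 h with CellTiter-Glo read-out. Survival is normalised to DMSO and 10 µM bortezomib and clipped at 100%.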

Mono-Mac-6 = tested on: Mono-Mac-6
Protocol: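 8x8 drug-combination matrices (0–5000 nM; rosiglitazone and lestaurtinib 0–1000 nM) were run in Mono-Mac-6 cells for 72 h with CellTiter-Glo read-out. Survival is normalised to DMSO and 10 µM bortezomib and clipped at 100%.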

O=C(C1CC1)N1CC[C@@H](C=C2NNC(=O)N2c2ccc(-c3ccc4occc4c3)cc2)C1 + O=C(c1c2ccccc2cc2ccccc12)N1CCC(N2CCC[C@@H](C(=O)N3CCOCC3)C2)CC1 [CP-640186]
cell viability [%]
Settings	drug1 concentration 5 nM	drug1 concentration 10 nM	drug1 concentration 50 nM	drug1 concentration 100 nM	drug1 concentration 500 nM	drug1 concentration 1000 nM	drug1 concentration 5000 nM
BV-173, drug2 concentration 5 nM	96.3	> 100	> 100	> 100	97.3	98.1	77.8
BV-173, drug2 concentration 10 nM	> 100	> 100	87.8	> 100	> 100	96.1	58.3
BV-173, drug2 concentration 50 nM	> 100	> 100	> 100	> 100	91.1	78.9	97.1
BV-173, drug2 concentration 100 nM	> 100	> 100	> 100	> 100	> 100	> 100	> 100
BV-173, drug2 concentration 500 nM	> 100	> 100	> 100	> 100	> 100	> 100	96.6
BV-173, drug2 concentration 1000 nM	86.4	> 100	> 100	91.9	> 100	> 100	> 100
BV-173, drug2 concentration 5000 nM	> 100	> 100	87.5	99.5	91.6	> 100	> 100
MV4-11, drug2 concentration 5 nM	95.4	96.1	93.4	98.1	97.2	100	> 100
MV4-11, drug2 concentration 10 nM	89.8	> 100	> 100	> 100	> 100	> 100	88.2
MV4-11, drug2 concentration 50 nM	> 100	98.5	> 100	> 100	83.6	> 100	> 100
MV4-11, drug2 concentration 100 nM	98.3	> 100	> 100	> 100	> 100	> 100	> 100
MV4-11, drug2 concentration 500 nM	> 100	91	88.9	90.1	> 100	> 100	97.5
MV4-11, drug2 concentration 1000 nM	> 100	97.9	98.6	> 100	> 100	> 100	> 100
MV4-11, drug2 concentration 5000 nM	98.1	86	96.1	> 100	91.9	86.4	92.3
Mono-Mac-6, drug2 concentration 5 nM	77.8	> 100	88.2	84.8	85.5	88.8	> 100
Mono-Mac-6, drug2 concentration 10 nM	> 100	> 100	> 100	90.7	81.2	> 100	63.7
Mono-Mac-6, drug2 concentration 50 nM	99.3	89.7	> 100	> 100	> 100	> 100	> 100
Mono-Mac-6, drug2 concentration 100 nM	87.7	> 100	> 100	99.8	> 100	91.2	87.4
Mono-Mac-6, drug2 concentration 500 nM	95.2	87	87.4	86.2	> 100	> 100	79.5
Mono-Mac-6, drug2 concentration 1000 nM	88.8	> 100	> 100	84.9	> 100	98.8	99.4
Mono-Mac-6, drug2 concentration 5000 nM	> 100	70.2	98.1	99.4	81.6	72.4	> 100

O=C(C1CC1)N1CC[C@@H](C=C2NNC(=O)N2c2ccc(-c3ccc4occc4c3)cc2)C1 + CS(=O)(=O)N1CCN(Cc2cc3nc(-c4cccc5[nH]ncc45)nc(N4CCOCC4)c3s2)CC1 [Pictilisib]
cell viability [%]
Settings	drug1 concentration 5 nM	drug1 concentration 10 nM	drug1 concentration 50 nM	drug1 concentration 100 nM	drug1 concentration 500 nM	drug1 concentration 1000 nM	drug1 concentration 5000 nM
BV-173, drug2 concentration 5 nM	> 100	> 100	95	> 100	84.4	77.5	84.8
BV-173, drug2 concentration 10 nM	> 100	> 100	> 100	> 100	95.5	> 100	92.2
BV-173, drug2 concentration 50 nM	> 100	> 100	> 100	> 100	94.4	99.1	59.7
BV-173, drug2 concentration 100 nM	81	> 100	> 100	94.8	94.3	87.4	> 100
BV-173, drug2 concentration 500 nM	> 100	> 100	93.8	> 100	> 100	98.7	89.3
BV-173, drug2 concentration 1000 nM	89.7	99.2	> 100	92.8	80	99.9	78.4
BV-173, drug2 concentration 5000 nM	87.6	92.1	84.8	> 100	75.7	70.6	> 100
MV4-11, drug2 concentration 5 nM	> 100	91.3	> 100	89.5	> 100	76.8	> 100
MV4-11, drug2 concentration 10 nM	> 100	89.1	> 100	91.9	72	94.3	> 100
MV4-11, drug2 concentration 50 nM	> 100	99.9	94.2	92	93.5	> 100	56.5
MV4-11, drug2 concentration 100 nM	89.5	96.8	99.6	> 100	> 100	94.6	> 100
MV4-11, drug2 concentration 500 nM	> 100	95.5	> 100	94	94.4	94.2	80.3
MV4-11, drug2 concentration 1000 nM	91.9	71.7	87.8	80.5	87.1	> 100	74.8
MV4-11, drug2 concentration 5000 nM	76.5	49.4	58.1	68.8	69.9	44.4	55.6
Mono-Mac-6, drug2 concentration 5 nM	> 100	94.2	88.6	86.5	92.2	81.2	88.3
Mono-Mac-6, drug2 concentration 10 nM	89.9	> 100	85.6	81	78.2	81.2	93.1
Mono-Mac-6, drug2 concentration 50 nM	80.5	> 100	81.7	69.7	74.8	99	68.1
Mono-Mac-6, drug2 concentration 100 nM	63	75.5	91.8	75.3	> 100	94.4	84.6
Mono-Mac-6, drug2 concentration 500 nM	70	83.9	> 100	87.7	73	86.2	81.4
Mono-Mac-6, drug2 concentration 1000 nM	53.7	71	52.4	87.1	71.3	77.1	69.4
Mono-Mac-6, drug2 concentration 5000 nM	51.6	27.5	37.5	48.3	49.9	24.2	49.3

CC(C)c1onc(-c2c(Cl)cccc2Cl)c1COc1ccc(/C=C/c2cccc(C(=O)O)c2)c(Cl)c1 [GW4064] + Cn1cc(-c2ccncc2)c(-c2ccc(OCc3ccc4ccccc4n3)cc2)n1 [PF-02545920]
cell viability [%]
Settings	drug1 concentration 5 nM	drug1 concentration 10 nM	drug1 concentration 50 nM	drug1 concentration 100 nM	drug1 concentration 500 nM	drug1 concentration 1000 nM	drug1 concentration 5000 nM
BV-173, drug2 concentration 5 nM	> 100	> 100	> 100	90.6	> 100	> 100	> 100
BV-173, drug2 concentration 10 nM	> 100	95.5	95.6	> 100	> 100	> 100	98
BV-173, drug2 concentration 50 nM	> 100	88.5	> 100	> 100	> 100	80.7	74
BV-173, drug2 concentration 100 nM	> 100	> 100	> 100	> 100	> 100	> 100	97
BV-173, drug2 concentration 500 nM	97.3	93.2	96	> 100	> 100	> 100	> 100
BV-173, drug2 concentration 1000 nM	> 100	> 100	82.7	99.2	95.5	87.3	81.7
BV-173, drug2 concentration 5000 nM	90.7	90.2	79.3	96.2	92.8	78.5	> 100
MV4-11, drug2 concentration 5 nM	90.6	> 100	> 100	95.2	> 100	90.8	90.2
MV4-11, drug2 concentration 10 nM	> 100	> 100	91	99.5	94.5	> 100	95.5
MV4-11, drug2 concentration 50 nM	> 100	> 100	> 100	> 100	> 100	53.1	96.7
MV4-11, drug2 concentration 100 nM	97.4	> 100	> 100	96.7	> 100	> 100	89.1
MV4-11, drug2 concentration 500 nM	> 100	96.2	> 100	> 100	70.1	> 100	77.9
MV4-11, drug2 concentration 1000 nM	> 100	> 100	97.2	91.1	95.5	80.8	73.6
MV4-11, drug2 concentration 5000 nM	48.9	54	49.3	53.3	54.9	50.4	46.4
Mono-Mac-6, drug2 concentration 5 nM	> 100	> 100	> 100	85.7	80.4	88.9	> 100
Mono-Mac-6, drug2 concentration 10 nM	92.5	> 100	79.3	78.5	87.6	94.3	99.8
Mono-Mac-6, drug2 concentration 50 nM	> 100	> 100	> 100	86	97.2	66.9	99.9
Mono-Mac-6, drug2 concentration 100 nM	> 100	90.5	> 100	86.8	> 100	> 100	82.2
Mono-Mac-6, drug2 concentration 500 nM	81.2	69.3	> 100	> 100	94.8	87.9	> 100
Mono-Mac-6, drug2 concentration 1000 nM	93.3	> 100	77.2	98.6	96.1	89.8	81.4
Mono-Mac-6, drug2 concentration 5000 nM	74.5	91.6	65	76.7	96.5	85.1	87.7

O=C(C1CC1)N1CC[C@@H](C=C2NNC(=O)N2c2ccc(-c3ccc4occc4c3)cc2)C1 + C[C@H](NC(=O)c1sccc1OCc1ccc(Cl)cc1)c1ccccc1 [as1949490]
cell viability [%]
Settings	drug1 concentration 5 nM	drug1 concentration 10 nM	drug1 concentration 50 nM	drug1 concentration 100 nM	drug1 concentration 500 nM	drug1 concentration 1000 nM	drug1 concentration 5000 nM
BV-173, drug2 concentration 5 nM	> 100	> 100	> 100	> 100	91.8	93.3	80.6
BV-173, drug2 concentration 10 nM	94.1	> 100	> 100	> 100	> 100	> 100	> 100
BV-173, drug2 concentration 50 nM	> 100	> 100	> 100	85	> 100	88.7	96.7
BV-173, drug2 concentration 100 nM	> 100	80.2	> 100	88.5	> 100	96	84.7
BV-173, drug2 concentration 500 nM	85.5	> 100	84.8	> 100	91.2	92.3	77.2
BV-173, drug2 concentration 1000 nM	> 100	87.6	99.3	> 100	80.2	73.6	58.5
BV-173, drug2 concentration 5000 nM	65.2	44.9	73.8	46	44.2	57.2	0
MV4-11, drug2 concentration 5 nM	> 100	> 100	> 100	83.1	> 100	96.5	> 100
MV4-11, drug2 concentration 10 nM	> 100	> 100	> 100	> 100	> 100	> 100	> 100
MV4-11, drug2 concentration 50 nM	> 100	99	> 100	> 100	> 100	> 100	> 100
MV4-11, drug2 concentration 100 nM	> 100	80.4	> 100	92.8	92.2	> 100	98.4
MV4-11, drug2 concentration 500 nM	> 100	96.5	> 100	> 100	> 100	93.8	> 100
MV4-11, drug2 concentration 1000 nM	> 100	> 100	98	89.7	86.3	> 100	61.8
MV4-11, drug2 concentration 5000 nM	77.3	85.6	71.7	79.5	62	58.4	72
Mono-Mac-6, drug2 concentration 5 nM	77.9	> 100	94.8	82.5	> 100	88.6	91.3
Mono-Mac-6, drug2 concentration 10 nM	> 100	> 100	> 100	84.4	> 100	98.4	> 100
Mono-Mac-6, drug2 concentration 50 nM	> 100	> 100	> 100	> 100	88.9	91.8	> 100
Mono-Mac-6, drug2 concentration 100 nM	90	96.4	> 100	94.7	77.3	> 100	69.7
Mono-Mac-6, drug2 concentration 500 nM	90.5	78	74.2	> 100	> 100	> 100	80.7
Mono-Mac-6, drug2 concentration 1000 nM	95	> 100	97.3	> 100	77.3	91.1	75.6
Mono-Mac-6, drug2 concentration 5000 nM	79	73.5	> 100	96.3	73.3	91.3	54.6
